Measurements published in patent US20060167226A1, “Mutations of voltage-gated ion channnels that allow them to express a voltage-independent phenotype and an improved method to use the same” (Cardiome Pharma Corp., priority 2002, published 2006).

Target: T1, Kv1.5m channels (Homo sapiens, UniProt P22460, P513D/R400Q/R403Q/R409Q)
T1 construct: The coding region of the human gene for Kv1.5 was subcloned into pYC2 (Invitrogen) as an approximately 2 kb HindIII-NotI fragment; expressed in transfected cells; host or cells: Saccharomyces cerevisiae trk1 trk2 strain WΔ3, plasmid pYC2 (GAL1 promoter) or a PGK promoter vector
Assay: Liquid culture growth assay of trk1 trk2 yeast (WΔ3) expressing Kv1.5m in low potassium media
Format: cell-based
Conditions: for OD600 (Batch A) / OD600 (Batch B): QPD WΔ3 transformants, liquid culture; for Block of growth of the trk1 trk2 strain expressing Kv1.5m on low potassium: low potassium media
Description: Expression of the cloned inserts is under the control of either the constitutively active PGK promoter or the inducible GAL1 promoter. The latter requires growth in/on media containing galactose as sole carbon source. The screening method involves adding the compound to be screened to the growth media of trk1 trk2 yeast expressing the modified potassium channel and determining whether the yeast's growth is inhibited. The tested compound may be incorporated in liquid or solid growth media or added ectopically to solid growth media.
Our yeast strain, when expressing the mutant Kv1.5 channel, is capable of consistent growth on as little as 0.5 mM potassium. Very few pseudorevertants are capable of growth at this potassium concentration; the vast majority of liquid cultures of the parent strain show absolutely no growth even after more than 24 hours culture. When expressing the mutant Kv1.5 channel, growth is robust and can be blocked by known Kv1.5 channel blockers.
Detailed Description of the Methods Required for a Liquid Culture Media Assay of Kv1.5:
Low salt media was made according to Wickerham, L. J. (1951) (Taxonomy of Yeasts. United States Department of Agriculture Technical Bulletin No. 1029), except that the final potassium phosphate concentration was 0.5 mM.
1. Streak out WΔ3 and Kv1.5m transformed WΔ3 (“Kv1.5m”) culture from frozen stock onto YPD+100 mM K+ and YNB+100 mM K+, ura-agar media plates, respectively, for fresh colonies.
2. The day before doing the drug assay, use the fresh colonies to grow overnight cultures of WΔ3 in liquid YPD+100 mM K+ media, and grow “Kv1.5 m” in liquid YNB+100 mM K+, ura-media.
3. Collect the overnight yeast cells and wash them in sterile distilled water. Resuspend WΔ3 cells in the same volume of LS+100 mM K++ uracil media, and resuspend “Kv1.5 m” cells in the same volume of LS+0.5 mM K+, ura-media. These are the seed cultures for the drug assay.
4. In Falcon 2059 tubes, prepare various concentrations of drugs in LS+0.5 mM K+, ura-media or LS+100 mM K++ uracil media, and also set up solvent controls for each drug concentrations used. Here is an example:
Drug X stock solution (10 mM) is dissoved in 0.5% Tween-20. Final concentrations that we test are 1 mM, 0.1 mM, and 0.01 mM.
Then 250 micro liter of the seed culture of “Kv1.5m” from step 3 is inoculated into each tube.
5. Measure the starting OD600 by taking out 0.1 ml of the sample from each tube and diluting […] for measuring. Grow cultures at […] shaker at 300 rpm.
6. Get 0.1 ml of samples from each tube and measure their OD600 at 2 hr, 4 hr, 6 hr, 8 hr, and 24 hr.

T1 sequence (P22460 whole entry R400Q/R403Q/R409Q/P513D, the tested form may be a part): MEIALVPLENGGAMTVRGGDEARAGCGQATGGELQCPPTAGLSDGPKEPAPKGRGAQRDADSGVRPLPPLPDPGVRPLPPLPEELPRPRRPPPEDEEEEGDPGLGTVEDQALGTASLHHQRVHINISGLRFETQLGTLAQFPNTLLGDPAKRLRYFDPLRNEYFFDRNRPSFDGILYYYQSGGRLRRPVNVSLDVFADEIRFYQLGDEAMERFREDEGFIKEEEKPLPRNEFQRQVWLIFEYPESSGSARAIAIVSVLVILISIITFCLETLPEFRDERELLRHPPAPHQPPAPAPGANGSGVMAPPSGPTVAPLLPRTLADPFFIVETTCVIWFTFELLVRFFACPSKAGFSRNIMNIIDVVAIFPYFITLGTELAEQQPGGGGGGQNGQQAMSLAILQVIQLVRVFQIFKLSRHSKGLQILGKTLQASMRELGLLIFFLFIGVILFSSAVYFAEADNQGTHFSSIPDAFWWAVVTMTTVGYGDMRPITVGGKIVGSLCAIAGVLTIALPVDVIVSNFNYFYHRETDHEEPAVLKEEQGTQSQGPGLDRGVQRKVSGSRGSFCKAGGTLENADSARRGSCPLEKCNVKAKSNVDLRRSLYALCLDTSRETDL

## Nc1ccncc1 [Compound 4-AP, 4-aminopyridine]
1 mM 4-AP, both batches, read-out: reduction at OD600 (inhibition of yeast growth)
  inhibition at 1000 µM: 50%
LS + 0.5 mM K+ + 0.1 mM 4-AP
  OD600 (Batch A): 2.55
  OD600 (Batch B): 2.5
LS + 0.5 mM K+ + 1 mM 4-AP
  OD600 (Batch A): 1.11
  OD600 (Batch B): 1.11
  Block of growth of the trk1 trk2 strain expressing Kv1.5m on low potassium: can block the Kv1.5m channels
Listed as 4-aminopyridine
  Block of growth of the trk1 trk2 strain expressing Kv1.5m on low potassium: could be blocked
